Assay results: ChEMBL document CHEMBL4145536, “Design, synthesis and biological evaluation of novel bouchardatine analogs as potential inhibitors of adipogenesis/lipogenesis in 3T3-L1 adipocytes” (Eur J Med Chem, 2018)
Calls of active or inactive are those of the source. The calls are words filed in the database; no cut-off is given here.

Legend:
3T3-L1 [1] = test: Cytotoxicity against mouse 3T3L1 cells assessed as decrease in cell viability after 24 hrs by MTT assay; type: cell-based; conditions: 3T3-L1, 24 h
HepG2 [2] = test: Cytotoxicity against human HepG2 cells assessed as decrease in cell viability after 24 hrs by MTT assay; type: cell-based; conditions: HepG2, 24 h
HepG2 [3] = test: Lipid lowering activity in human HepG2 cells assessed as decrease in triglyceride level at 10 uM for 6 days in presence of oleic acid by oil red o-staining based assay relative to control; type: functional; design: scale not given: the % may be the effect or the level left
[4] = Solubility of the compound; type: physicochemical
3T3-L1 [5] = test: Lipid lowering activity in mouse 3T3L1 cells assessed as decrease in triglyceride level at 10 uM for 6 days by oil red o-staining based microscopic assay; type: functional, cell-based
3T3-L1 [6] = test: Lipid lowering activity in mouse 3T3L1 cells assessed as decrease in triglyceride level at 10 uM for 6 days by oil red o-staining based assay relative to control; type: functional; design: scale not given: the % may be the effect or the level left
3T3-L1 [7] = test: Cell cycle arrest in mouse 3T3L1 cells assessed as accumulation at G0/G1 phase at 5 uM after 24 hrs by propidium iodide staining based FACS analysis (reference value: 48.7%); type: functional
Mus musculus [8] = organism: Mus musculus; test: Induction of AMPKalpha phosphorylation at Thr172 residue in mouse 3T3L1 cells measured on day 3 post treatment by Western blot analysis; type: cell-based
Mus musculus [9] = organism: Mus musculus; test: Activation of AMPK pathway in mouse 3T3L1 cells assessed as decrease in C/EBPbeta mRNA level measured after 24 hrs by RT-PCR method; type: cell-based
3T3-L1 [10] = test: Lipid lowering activity in mouse 3T3L1 cells assessed as decrease in triglyceride level at 5 uM treated on day 0 to 9 starting from 2 days post confluent by oil red o-staining based assay relative to control; type: functional; design: scale not given: the % may be the effect or the level left
Mus musculus [11] = organism: Mus musculus; test: Activation of AMPK pathway in mouse 3T3L1 cells assessed as reduction in C/EBPdelta protein expression at 5 uM after 4 hrs by Western blot analysis; type: cell-based
Mus musculus [12] = organism: Mus musculus; test: Activation of AMPK pathway in mouse 3T3L1 cells assessed as decrease in FAS mRNA level measured on day 6 post treatment by RT-PCR method; type: cell-based
3T3-L1 [13] = test: Cell cycle arrest in mouse 3T3L1 cells assessed as accumulation at G0/G1 phase at 1 uM after 24 hrs by propidium iodide staining based FACS analysis (reference value: 48.7%); type: functional
Mus musculus [14] = organism: Mus musculus; test: Activation of AMPK pathway in mouse 3T3L1 cells assessed as reduction in C/EBPbeta protein expression at 5 uM after 4 hrs by Western blot analysis; type: cell-based
3T3-L1 [15] = test: Lipid lowering activity in mouse 3T3L1 cells assessed as inhibition of lipogenesis by measuring decrease in triglyceride level at 5 uM treated on day 3 to 6 starting from 2 days post confluent by oil red o-staining based assay relative to control; type: functional
Mus musculus [16] = organism: Mus musculus; test: Activation of AMPK pathway in mouse 3T3L1 cells assessed as decrease in SREBP-1c mRNA level at 1 to 10 uM measured on day 6 post treatment by RT-PCR method; type: cell-based
3T3-L1 [17] = test: Inhibition of cell proliferation in mouse 3T3L1 cells assessed as reduction in adipogenic cocktail-induced mitotic cell clonal expansion at 1 to 10 uM after 72 hrs by hemocytometric method; type: functional, cell-based
Mus musculus [18] = organism: Mus musculus; test: Induction of AMPKalpha phosphorylation at Thr172 residue in mouse 3T3L1 cells at 5 uM after 4 hrs by Western blot analysis; type: cell-based
3T3-L1 [19] = test: Lipid lowering activity in mouse 3T3L1 cells assessed as inhibition of adipogenesis by measuring decrease in triglyceride level at 5 uM treated on day 0 to 3 starting from 2 days post confluent by oil red o-staining based assay relative to control; type: functional
Mus musculus [20] = organism: Mus musculus; test: Activation of AMPK pathway in mouse 3T3L1 cells assessed as decrease in C/EBPalpha mRNA level at 1 to 10 uM measured on day 3 post treatment by RT-PCR method; type: cell-based
3T3-L1 [21] = test: Lipid lowering activity in mouse 3T3L1 cells assessed as inhibition of terminal differentiation stage by measuring decrease in triglyceride level at 5 uM treated on day 6 to 9 starting from 2 days post confluent by oil red o-staining based assay relative to control; type: functional
3T3-L1 [22] = test: Lipid lowering activity in mouse 3T3L1 cells assessed as decrease in triglyceride level treated 2 days post confluent for 9 days by oil red o-staining based assay; type: functional, cell-based
3T3-L1 [23] = test: Lipid lowering activity in mouse 3T3L1 cells assessed as decrease in triglyceride level at 5 uM by oil red o-staining based assay; type: functional, cell-based; conditions: TDE = time-dependent effect
Mus musculus [24] = organism: Mus musculus; test: Activation of AMPK pathway in mouse 3T3L1 cells assessed as decrease in PPARgamma mRNA level at 1 to 10 uM measured on day 3 post treatment by RT-PCR method; type: cell-based
Mus musculus [25] = organism: Mus musculus; test: Activation of AMPK pathway in mouse 3T3L1 cells assessed as decrease in SCD1 mRNA level measured on day 6 post treatment by RT-PCR method; type: cell-based
Mus musculus [26] = organism: Mus musculus; test: Activation of AMPK pathway in mouse 3T3L1 cells assessed as reduction in C/EBPdelta protein expression at 2 mM after 4 hrs by Western blot analysis; type: cell-based
Mus musculus [27] = organism: Mus musculus; test: Activation of AMPK pathway in mouse 3T3L1 cells assessed as decrease in C/EBPgamma mRNA level measured after 24 hrs by RT-PCR method; type: cell-based
Mus musculus [28] = organism: Mus musculus; test: Activation of AMPK pathway in mouse 3T3L1 cells assessed as reduction in C/EBPbeta protein expression at 2 mM after 4 hrs by Western blot analysis; type: cell-based
3T3-L1 [29] = test: Cell cycle arrest in mouse 3T3L1 cells assessed as decrease in S-phase at 1 to 10 uM after 24 hrs by propidium iodide staining based FACS analysis; type: functional
Mus musculus [30] = organism: Mus musculus; test: Activation of AMPK pathway in mouse 3T3L1 cells assessed as decrease in […] mRNA level measured on day 6 post treatment by RT-PCR method; type: cell-based
Mus musculus [31] = organism: Mus musculus; test: Activation of AMPK pathway in mouse 3T3L1 cells assessed as induction of […] phosphorylation at Ser79 residue measured on day 6 post treatment by Western blot analysis; type: cell-based
3T3-L1 [32] = test: Cell cycle arrest in mouse 3T3L1 cells assessed as accumulation at G0/G1 phase at 10 uM after 24 hrs by propidium iodide staining based FACS analysis (reference value: 48.7%); type: functional
3T3-L1 [33] = test: Cytotoxicity against mouse 3T3L1 cells assessed as decrease in cell viability up to 10 uM measured up to 72 hrs by LDH release assay; type: cell-based; conditions: 3t3-l1, 72 h
3T3-L1 [34] = test: Lipid lowering activity in mouse 3T3L1 cells assessed as decrease in triglyceride level at 5 uM treated on day 0 to 6 starting from 2 days post confluent by oil red o-staining based assay relative to control; type: functional; design: scale not given: the % may be the effect or the level left

Question: With `O=Cc1c(-c2nc3ccccc3c(=O)[nH]2)[nH]c2ccccc12` as the molecule, how does the IC50 (3T3-L1 [1]) read?
Answer: > 50 µM

Question: And the IC50 (HepG2 [2])?
Answer: > 50 µM

Question: And the Activity (HepG2 [3])?
Answer: 24.1%

Question: What about the solubility [4] of the same molecule?
Answer: Insoluble

Question: And the Activity (3T3-L1 [5])?
Answer: Active

Question: What about the Activity (3T3-L1 [6]) of the same molecule?
Answer: 20.1%

Question: With `Fc1c(-c2nc(NCCCN3CCCC3)c3ccccc3n2)[nH]c2ccccc12` as the molecule, how does the Activity (3T3-L1 [7]) read?
Answer: 66.1%

Question: What about the IC50 (3T3-L1 [1]) of the same molecule?
Answer: 37.7 µM

Question: And the Activity (Mus musculus [8])?
Answer: Active

Question: What about the Activity (Mus musculus [9]) of the same molecule?
Answer: Dose-dependent effect

Question: And the Activity (3T3-L1 [10])?
Answer: 80.5%

Question: And the Activity (Mus musculus [11])?
Answer: Active

Question: And the Activity (Mus musculus [12])?
Answer: Dose-dependent effect

Question: What about the Activity (3T3-L1 [13]) of the same molecule?
Answer: 60.8%

Question: What about the Activity (Mus musculus [14]) of the same molecule?
Answer: Active

Question: What about the inhibition at 5 µM (3T3-L1 [15]) of the same molecule?
Answer: 51.6%

Question: What about the IC50 (HepG2 [2]) of the same molecule?
Answer: 25.1 µM

Question: What about the Activity (Mus musculus [16]) of the same molecule?
Answer: Active

Question: And the inhibition (3T3-L1 [17])?
Answer: Active

Question: And the Activity (Mus musculus [18])?
Answer: Active

Question: What about the inhibition at 5 µM (3T3-L1 [19]) of the same molecule?
Answer: 71.1%

Question: What about the Activity (HepG2 [3]) of the same molecule?
Answer: 20.8%

Question: And the Activity (Mus musculus [20])?
Answer: Active

Question: And the inhibition at 5 µM (3T3-L1 [21])?
Answer: 22.1%

Question: What about the Activity (3T3-L1 [22]) of the same molecule?
Answer: Dose-dependent effect

Question: And the EC50 (3T3-L1 [22])?
Answer: 0.24 µM

Question: What about the Activity (3T3-L1 [23]) of the same molecule?
Answer: Tde

Question: And the Activity (Mus musculus [24])?
Answer: Active

Question: And the Activity (Mus musculus [25])?
Answer: Dose-dependent effect

Question: What about the Activity (Mus musculus [26]) of the same molecule?
Answer: Active

Question: And the Activity (Mus musculus [27])?
Answer: Dose-dependent effect

Question: And the Activity (Mus musculus [28])?
Answer: Active

Question: And the Activity (3T3-L1 [29])?
Answer: Active

Question: And the Activity (Mus musculus [30])?
Answer: Dose-dependent effect

Question: And the Activity (3T3-L1 [5])?
Answer: Active

Question: What about the Activity (Mus musculus [31]) of the same molecule?
Answer: Active

Question: What about the Activity (3T3-L1 [32]) of the same molecule?
Answer: 77.6%

Question: And the Activity (3T3-L1 [33])?
Answer: Non-Toxic

Question: What about the Activity (3T3-L1 [6]) of the same molecule?
Answer: 79.1%

Question: And the Activity (3T3-L1 [34])?
Answer: 74.2%
